In patent EP0320630A1, “Enantiometric iodobenzamides” (THE VANDERBILT UNIVERSITY, priority 1987, dated 1989) one finds IC50 data, which are given here for two molecules.

The target in assay [1] is T1, dopamine D-2 receptor (Rattus norvegicus, UniProt P61169).
T1 construct: 90 µL of the striatal membrane preparation; from tissue; host or cells: rat striatum (membrane homogenate)
The assay is described as follows: Blocking of [3H]spiperone binding to rat striatal membranes. Conditions: radioligand [3H]spiperone at 0.5 nM; rat striatal membrane preparation; 30 min at 37 °C. Here is the method:
(§1) The procedure, described by de […]., and Beart P.M., Eur. J. Pharmacol. 106 133-139 (1984), is as follows: Male Sprague-Dawley rats (150-200 g) were killed by decapitation and their brains quickly removed and dissected on ice. Striata were dissected and homogenized in 40 vol of ice-cold 50 mM Tris-HCl buffer (pH 7.4) containing 120 mM sodium chloride, 5 mM potassium chloride, 2 mM calcium chloride, and 1 mM magnesium chloride using a Brinkman Polytron. The suspension was centrifuged at 30,000 x g for 10 min at 4 °C, and the pellet was resuspended in 40 vol of fresh buffer. The suspension was incubated at 37 °C for 10 min, centrifuged again at 30,000 x g for 10 min at 4 °C, and the final pellet was resuspended with the polytron in 200 vol of ice cold buffer. […] Tubes were incubated for 30 min at 37 °C, poured over Whatman GF/B filters under vacuum, and the filters were rinsed three times with 4 mL of ice cold buffer.

Assay [2] concerns the target T1, dopamine D-2 receptor. The assay is described as follows: Blocking of [3H](S)-sulpiride binding to rat striatal membranes. Conditions: radioligand [3H](S)-sulpiride at 5.0 nM; rat striatal membrane preparation; 30 min at 37 °C. On the procedure: as §1

Structures are written as SMILES.

T1 sequence (P61169 whole entry): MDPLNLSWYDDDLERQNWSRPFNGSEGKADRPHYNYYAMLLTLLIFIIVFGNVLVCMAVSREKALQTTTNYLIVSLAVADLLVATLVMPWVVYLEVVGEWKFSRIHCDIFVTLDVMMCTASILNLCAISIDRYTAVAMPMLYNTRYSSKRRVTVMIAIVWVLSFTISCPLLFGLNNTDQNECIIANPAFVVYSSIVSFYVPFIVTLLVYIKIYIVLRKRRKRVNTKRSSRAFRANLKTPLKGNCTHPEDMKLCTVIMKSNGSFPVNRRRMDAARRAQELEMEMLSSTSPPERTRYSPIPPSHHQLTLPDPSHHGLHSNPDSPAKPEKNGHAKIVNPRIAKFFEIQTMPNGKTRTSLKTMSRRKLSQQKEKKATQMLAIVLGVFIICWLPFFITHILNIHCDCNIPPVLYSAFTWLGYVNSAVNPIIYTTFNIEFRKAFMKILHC

Regarding `CCN1CCC[C@@H]1CNC(=O)c1cc(I)ccc1OC`, the concentration for half-maximal inhibition (IC50) – broadly, the concentration at which inhibition is half-maximal – at dopamine D-2 receptor [1] amounted to 560 ± 200 nM; on dopamine D-2 receptor [2], 145 ± 5 nM.
Regarding `CCN1CCC[C@H]1CNC(=O)c1cc(I)ccc1OC`, the results for the IC50 on dopamine D-2 receptor [1] and on dopamine D-2 receptor [2] were 16.4 ± 4.9 nM and 3.3 ± 0.9 nM, respectively.
